{"source": "patent US20150192570A1", "about": "“METHODS FOR DETERMINING WHETHER A CYTOMEGALOVIRUS INFECTION IN A TRANSPLANTED PATIENT IS SUCEPTIBLE TO INDUCE ALLOGRAFT REJECTION” (priority 2012, published 2015)", "key": {"[1]": {"tested_on": "MART.22 HLA-E-restricted CD8 T cells", "assay": "TNF production by MART.22 against unrecognized endothelial culture HAEC#402 pulsed with synthetic peptides", "type": "cell-based, human", "settings": "HAEC#402 loaded with 10^2 μM of peptide", "description": "A/ Reactivity of HLA-E-restricted T cells against unrecognized endothelial cultures pulsed with synthetic peptides. HAECs were incubated for 1 h with range concentrations of the indicated peptides before MART.22 T cells were added. After 6 h, T cells were fixed, permeabilized and stained for intracellular TNF-α. Results are expressed as percentage of TNF-producing T cells. B/ Impact of KIR2DL2-ligands expression by HAECs on HLA-E-restricted T cells alloreactivity. Percentages of TNF-producing MART.22 T cells are shown for HAECs with none, one or two protective HLA-C alleles. C/ Reactivity of HLA-E-restricted T cells against unrecognized endothelial cultures in the presence of blocking antibodies. HAECs were incubated with MART.22 T cells in the presence or not of indicated concentrations of blocking antobodies. After 6 h, T cells were fixed, permeabilized and stained for intracellular TNF-α. Results are expressed as percentage of TNF-producing T cells.\n(§1) For cytokine/perforine/granzyme intracellular staining, 1×10^5 T cells were stimulated in the presence of Brefeldin A (Sigma-Aldrich, 10 μg/ml) with 2×10^5 target cells (B-EBV cells or HAEC) for 6 h at 37° C., in the presence or not of blocking Abs. […] Cells were then fixed with 4% paraformaldehyde (Sigma-Aldrich), labeled with specific mAbs and analyzed by flow cytometry."}, "[2]": {"tested_on": "MART.22 HLA-E-restricted CD8 T cells", "assay": "Peptide/HLA-E*0101 tetramer staining of MART.22 T cells by flow cytometry", "type": "binding, human", "settings": "PE-streptavidin tetramers, 1 h", "description": "A/ TNF production in response to stimulation with .221 cells pulsed with synthetic peptides. .221 cells were incubated for 1 h with range concentrations of the indicated peptides before addition of MART.22 T cells. After 6 h, T cells were fixed, permeabilized and stained for intracellular TNF-α. Results are expressed as percentage of TNF-producing T cells. B/ Peptide-MHC tetramer staining of HLA-E-restricted CD8 T cells. MART.22 T cells were incubated for 1 h with biotyniled HLA-E monomers refolded with the indicated peptides and tetramerized with PE-coupled streptavidin. Peptide-HLA-E tetramers staining was assessed by flow cytometry and MFI are indicated.\nPeptides VMAPRTLLL and VMAPRTLVL (HLA-A*01- and HLA-A*02-derived signal peptides respectively) with purity >85% were purchased from Eurogentec (Angers, France). HLA-E*0101/peptide monomers were generated by the recombinant protein facility of SFR26 (Nantes, France).\nFor membrane staining, 2×10^5 cells were incubated at 4° C. with 10 μg/ml of Ab (specific or isotype control) or tetramers for 30 min or 1 h respectively. When non-conjugated mAb were used, a second incubation with PE-conjugated goat F(ab′)2 fragment anti-Mouse IgG (Beckman Coulters) was performed. 5×10^4 cells were acquired in the viable cells gate on a FACScalibur flow cytometer using CellQuest software (Becton Dickinson)."}, "[3]": {"tested_on": "HAEC", "assay": "Surface expression of HLA-E and total HLA-I on endothelial cultures after IFN-γ treatment (flow cytometry)", "type": "cell-based, human", "settings": "IFN-γ 50 U/mL, 48 h", "description": "(§2) A/ impact of IFN-γ treatment on surface expression of HLA-E (thick lines) and total HLA-I (dotted lines) molecules by endothelial cultures. MFI are indicated. B/ HLA-E-restricted CD8 T cells cytotoxicity toward endothelial cultures treated or not with IFN-γ. 103 ^51 Cr-labeled HAECs pretreated (closed circles) or not (open circle) with IFN-γ were co-cultured for 4 h with T cells at various E:T ratio. Cytotoxic activity was assessed trought measure of Chromium release in the supernatants. Percentages of specific lysis are indicated. Means and standard deviations of triplicate wells are shown for one representative experiments out of three performed. C/ HLA-E-restricted CD8 T cells cytokine production upon stimulation with endothelials cultures treated or not with IFN-γ. MART.22 T cells were fixed, permeabilized and stained for intracellular cytokines following 6 h of incubation with HAECs pretreated (black bars) or not (white bars) with INF-γ. Data are expressed as percentages of intracellular cytokine secreting T cells upon stimulation. D/ HLA-E-restricted CD8 T cells cytokine production upon stimulation with endothelials cultures treated or not by IFN-γ, in the presence of blocking antibodies. […] Data are expressed as percentages of intracellular TNF secreting T cells upon stimulation. […]"}, "[4]": {"tested_on": "HAEC", "assay": "Recognition (lysis, cytokine production) of IFN-γ treated endothelial cultures by MART.22", "type": "cell-based, human", "description": "as §2, with “stimulation.” for “stimulation. D/ HLA-E-restricted CD8 T cells cytokine production upon stimulation with endothelials cultures treated or not by IFN-γ, in the presence of blocking antibodies.”\nas §1\nTarget cells were labeled with 100 μCi Na^51CrO4 (Oris Industrie, Gif-sur-Yvette, France) for 1 h at 37° C., and incubated 4 h at 37° C., with effectors T cells at various E/T ratios. […] Percentage of target cell lysis was calculated according to the following formula: [(experimental release−spontaneous release)/(maximum release−spontaneous release)]×100. Maximum and spontaneous releases were determined by, respectively, adding 0.1% Triton X-100 or medium to ^51Cr-labeled target cells in the absence of T cells."}, "[5]": {"target": "classical HLA-I molecules on IFN-γ treated HAEC#495", "assay": "cell-based or functional assay"}, "[6]": {"target": "protective HLA-C molecules (KIR2DL2 ligands) expressed on HAEC", "assay": "cell-based or functional assay"}, "[7]": {"tested_on": "MART.22 HLA-E-restricted CD8 T cells", "assay": "TNF production by MART.22 T cells in response to .221 cells pulsed with synthetic peptides (intracellular TNF-α staining)", "type": "cell-based, human", "settings": ".221 cells loaded with synthetic peptide", "experimental": "For cytokine/perforine/granzyme intracellular staining, 1×10^5 T cells were stimulated in the presence of Brefeldin A (Sigma-Aldrich, 10 μg/ml) with 2×10^5 target cells (B-EBV cells or HAEC) for 6 h at 37° C., in the presence or not of blocking Abs. For peptide loading, target cells were incubated with peptides for 1 h at 37° C. before incubation with T cells. Cells were then fixed with 4% paraformaldehyde (Sigma-Aldrich), labeled with specific mAbs and analyzed by flow cytometry."}}}
{"compound": "CSCC[C@H](NC(=O)[C@@H](N)C(C)C)C(=O)N[C@@H](C)C(=O)N1CCC[C@H]1C(=O)N[C@@H](CCCNC(=N)N)C(=O)N[C@H](C(=O)N[C@@H](CC(C)C)C(=O)N[C@@H](CC(C)C)C(=O)N[C@@H](CC(C)C)C(=O)O)[C@@H](C)O", "note": "[VMAPRTLLL]", "values": [{"measurement": "TNF secreting T cells", "setting": "[1]", "value": 40, "unit": "%"}, {"measurement": "binding of HLA-E*0101 tetramers refolded with the peptide to MART.22", "setting": "[2]", "value": "bind"}]}
{"compound": "CSCC[C@H](NC(=O)[C@@H](N)C(C)C)C(=O)N[C@@H](C)C(=O)N1CCC[C@H]1C(=O)N[C@@H](CCCNC(=N)N)C(=O)N[C@H](C(=O)N[C@H](C(=O)N[C@@H](CC(C)C)C(=O)N[C@@H](CC(C)C)C(=O)O)C(C)C)[C@@H](C)O", "note": "[VMAPRTVLL]", "values": [{"measurement": "TNF secreting T cells", "setting": "[1]", "value": 18, "unit": "%"}]}
{"compound": "IFN-γ: recombinant human IFN-γ (50 U/mL, Imukin, Boehringer Ingelheim)", "values": [{"measurement": "HLA-E and total HLA-I surface expression on endothelial cells", "setting": "[3]", "value": "enhances"}, {"measurement": "MART.22 reactivity against IFN-γ treated HAEC#116", "setting": "[4]; HAEC#116, unpublished data", "value": "completely abolished"}, {"measurement": "MART.22 mediated lysis and cytokine production", "setting": "[4]; IFN-γ treated endothelial cells", "value": "decreased"}, {"measurement": "TNF-α producing T cells upon stimulation with HAEC#495", "setting": "[4]; after IFN-γ treatment, 61% untreated", "value": 33, "unit": "%"}]}
{"compound": "ILT-2 expressed by MART.22 T cells (from UniProt Q8NHL6 24-650) (receptor)", "values": [{"measurement": "TNF-α producing T cells against IFN-γ treated endothelial cells at the maximal dose of mAb against classical HLA-I molecules", "setting": "[5]", "value": 69, "unit": "%"}]}
{"compound": "KIR2DL2 expressed by MART.22 T cells (from UniProt P43627 22-348) (receptor)", "values": [{"measurement": "TNF producing T cells, endothelial cells with no appropriate HLA-C allele (HAEC#323)", "setting": "[6]", "value": 75, "unit": "%"}, {"measurement": "TNF producing T cells, endothelial cells with only one appropriate HLA-C allele (HAEC#112, #331 and #495)", "setting": "[6]", "value": 54, "unit": "%"}, {"measurement": "TNF producing T cells, mean value for endothelial cells with two appropriate HLA-C alleles (HAEC#116, #337 and #402)", "setting": "[6]", "value": 18, "unit": "%"}, {"measurement": "TNF-producing T cells against HAEC#402 in the presence of anti-HLA-A/B/C Abs", "setting": "[6]", "value": "< 25", "unit": "%"}, {"measurement": "TNF-α producing T cells against IFN-γ treated endothelial cells at the maximal dose of mAb against classical HLA-I molecules", "setting": "[5]", "value": 69, "unit": "%"}]}
{"compound": "VMAPRTLVL [HLA-A*02-derived signal peptide, identical to a CMV UL40 peptide]", "values": [{"measurement": "recognition of peptide-pulsed .221 cells by MART.22", "setting": "[7]", "value": "not recognized at all"}, {"measurement": "binding of HLA-E*0101 tetramers refolded with the peptide to MART.22", "setting": "[2]", "value": "no significant binding"}]}
{"compound": "VTAPRTLLL", "values": [{"measurement": "recognition of peptide-pulsed .221 cells by MART.22", "setting": "[7]", "value": "not recognized at all"}]}
{"compound": "VTAPRTVLL", "values": [{"measurement": "recognition of peptide-pulsed .221 cells by MART.22", "setting": "[7]", "value": "not recognized at all"}]}
